In brackets after ≈: the same amount, converted by molar mass.
What was measured:
Escherichia coli [1] = assay: Antibacterial activity against Escherichia coli isolate 006 by broth microdilution assay; type: functional
[2] = Inhibition of Mycobacterium smegmatis ribosome containing ribosomal RNA A-site A1408G mutant in rabbit reticulocyte lysates assessed as reduction in ribosome-mediated protein synthesis in presence of S-30 extracts by fire fly luciferase synthesis based cell-free translation assay; set-up: species or system Mycolicibacterium smegmatis
Ribosome = assay: Inhibition of ribosome-mediated protein synthesis in rabbit reticulocyte lysates in presence of S-30 extracts by fire fly luciferase synthesis based cell-free translation assay; set-up: species or system Oryctolagus cuniculus
80S Ribosome = assay: Inhibition of human ribosome containing eukaryotic wild type ribosomal RNA A-site in rabbit reticulocyte lysates assessed as reduction in ribosome-mediated protein synthesis in presence of S-30 extracts by fire fly luciferase synthesis based cell-free translation assay
[3] = Inhibition of human ribosome containing eukaryotic ribosomal RNA A-site A1555G mutant in rabbit reticulocyte lysates assessed as reduction in ribosome-mediated protein synthesis in presence of S-30 extracts by fire fly luciferase synthesis based cell-free translation assay
[4] = Inhibition of Mycobacterium smegmatis ribosome containing ribosomal RNA A-site G1491C mutant in rabbit reticulocyte lysates assessed as reduction in ribosome-mediated protein synthesis in presence of S-30 extracts by fire fly luciferase synthesis based cell-free translation assay; set-up: species or system Mycolicibacterium smegmatis
[5] = Inhibition of human ribosome containing eukaryotic ribosomal RNA A-site Cyt14 allele in rabbit reticulocyte lysates assessed as reduction in ribosome-mediated protein synthesis in presence of S-30 extracts by fire fly luciferase synthesis based cell-free translation assay
Escherichia coli [6] = assay: Antibacterial activity against Escherichia coli isolate 001 by broth microdilution assay; type: functional
Bacterial 70S ribosome = assay: Inhibition of Mycobacterium smegmatis ribosome containing wild type ribosomal RNA A-site in rabbit reticulocyte lysates assessed as reduction in ribosome-mediated protein synthesis in presence of S-30 extracts by fire fly luciferase synthesis based cell-free translation assay; set-up: species or system Mycolicibacterium smegmatis
Staphylococcus aureus [7] = assay: Antibacterial activity against methicillin-resistant Staphylococcus aureus isolate AG 044 by broth microdilution assay; type: functional
Staphylococcus aureus [8] = assay: Antibacterial activity against methicillin-resistant Staphylococcus aureus isolate AG 038 by broth microdilution assay; type: functional
Staphylococcus aureus [9] = assay: Antibacterial activity against methicillin-resistant Staphylococcus aureus isolate AG 039 by broth microdilution assay; type: functional
Staphylococcus aureus [10] = assay: Antibacterial activity against methicillin-resistant Staphylococcus aureus isolate AG 042 by broth microdilution assay; type: functional
Escherichia coli [11] = assay: Antibacterial activity against Escherichia coli isolate 003 by broth microdilution assay; type: functional
Escherichia coli [12] = assay: Antibacterial activity against Escherichia coli isolate 055 by broth microdilution assay; type: functional
[13] = Inhibition of Mycobacterium smegmatis ribosome containing ribosomal RNA A-site G1491A mutant in rabbit reticulocyte lysates assessed as reduction in ribosome-mediated protein synthesis in presence of S-30 extracts by fire fly luciferase synthesis based cell-free translation assay; set-up: species or system Mycolicibacterium smegmatis

| SMILES | MIC (Escherichia coli [1]) | IC50 [2] | IC50 (Ribosome) | IC50 (80S Ribosome) | IC50 [3] | IC50 [4] | IC50 [5] | MIC (Escherichia coli [6]) | IC50 (Bacterial 70S ribosome) | MIC (Staphylococcus aureus [7]) | MIC (Staphylococcus aureus [8]) | MIC (Staphylococcus aureus [9]) | MIC (Staphylococcus aureus [10]) | MIC (Escherichia coli [11]) | MIC (Escherichia coli [12]) | IC50 [13] |
| --- | --- | --- | --- | --- | --- | --- | --- | --- | --- | --- | --- | --- | --- | --- | --- | --- |
| NC[C@@H]1O[C@H](O[C@H]2[C@@H](O)[C@H](O[C@@H]3[C@@H](O)[C@H](N)C[C@H](N)[C@H]3O[C@H]3O[C@H](CO)[C@@H](O[C@@H]4O[C@H](CO)[C@@H](O)[C@H](O)[C@H]4O)[C@H](O)[C@H]3N)O[C@@H]2CO)[C@H](N)[C@@H](O)[C@@H]1O | 32 µg/mL (≈ 41.1 µM) | 9.32 µg/mL | 60.75 µg/mL | 76000 nM | 83.64 µg/mL | 294.83 µg/mL | 117.53 µg/mL | > 128 µg/mL | 476 nM | 128 µg/mL (≈ 165 µM) | 128 µg/mL (≈ 165 µM) | ≥ 128 µg/mL | > 128 µg/mL | > 128 µg/mL | > 128 µg/mL | 15.5 µg/mL |
| CN[C@@H]1[C@@H](O[C@H]2O[C@H](CO)[C@@H](N)[C@H](O)[C@H]2O)O[C@H]2C[C@@H](N)[C@@H](O[C@H]3[C@H](O)[C@@H](O)[C@H](N)C[C@@H]3N)O[C@@H]2[C@@H]1O [APRAMYCIN] | 4 µg/mL (≈ 7.41 µM) | 128.89 µg/mL | 23.77 µg/mL | 108000 nM | 26.06 µg/mL | 31.21 µg/mL | 49.17 µg/mL | 16 µg/mL (≈ 29.7 µM) | 111 nM | 16 µg/mL (≈ 29.7 µM) | 8 µg/mL (≈ 14.8 µM) | 8 µg/mL (≈ 14.8 µM) | 8 µg/mL (≈ 14.8 µM) | 8 µg/mL (≈ 14.8 µM) | 8 µg/mL (≈ 14.8 µM) | 5 µg/mL |
| NC[C@@H]1O[C@H](O[C@H]2[C@@H](O)[C@H](O[C@@H]3[C@@H](O)[C@H](N)C[C@H](N)[C@H]3O[C@H]3O[C@H](CO)[C@@H](O[C@@H]4O[C@H](CO)[C@@H](N)[C@H](O)[C@H]4O)[C@H](O)[C@H]3N)O[C@@H]2CO)[C@H](N)[C@@H](O)[C@@H]1O | 16 µg/mL (≈ 20.6 µM) | 2.39 µg/mL | 32.41 µg/mL | 9810 nM | 17.38 µg/mL | 32.03 µg/mL | 21.43 µg/mL | > 64 µg/mL | 373 nM | 32 µg/mL (≈ 41.2 µM) | 32 µg/mL (≈ 41.2 µM) | > 64 µg/mL | > 64 µg/mL | > 64 µg/mL | > 64 µg/mL | 4.87 µg/mL |
| NC[C@@H]1O[C@H](O[C@H]2[C@@H](O)[C@H](O[C@@H]3[C@@H](O)[C@H](N)C[C@H](N)[C@H]3O[C@H]3O[C@H](CO)[C@@H](OCO[C@H]4O[C@H](CO)[C@@H](O)[C@H](O)[C@H]4O)[C@H](O)[C@H]3N)O[C@@H]2CO)[C@H](N)[C@@H](O)[C@@H]1O | 64 µg/mL (≈ 79.2 µM) | 17.16 µg/mL | 43.14 µg/mL | 29800 nM | 96.03 µg/mL | 200.3 µg/mL | 130.61 µg/mL | ≥ 128 µg/mL | 384 nM | 64 µg/mL (≈ 79.2 µM) | 64 µg/mL (≈ 79.2 µM) | ≥ 128 µg/mL | 128 µg/mL (≈ 158 µM) | ≥ 128 µg/mL | ≥ 128 µg/mL | 33.45 µg/mL |
| NC[C@@H]1O[C@H](O[C@H]2[C@@H](O)[C@H](O[C@@H]3[C@@H](O)[C@H](N)C[C@H](N)[C@H]3O[C@H]3O[C@H](CO)[C@@H](O[C@H]4O[C@H](CO)[C@H](O)[C@H](O)[C@H]4O)[C@H](O)[C@H]3N)O[C@@H]2CO)[C@H](N)[C@@H](O)[C@@H]1O | 32 µg/mL (≈ 41.1 µM) | 12.01 µg/mL | 23.75 µg/mL | 2870 nM | 14.95 µg/mL | 118.67 µg/mL | 35.63 µg/mL | > 128 µg/mL | 707 nM | 64 µg/mL (≈ 82.3 µM) | 64 µg/mL (≈ 82.3 µM) | 128 µg/mL (≈ 165 µM) | 64 µg/mL (≈ 82.3 µM) | > 128 µg/mL | > 128 µg/mL | 18.68 µg/mL |
| NC[C@@H]1O[C@H](O[C@H]2[C@@H](O)[C@H](O[C@@H]3[C@@H](O)[C@H](N)C[C@H](N)[C@H]3O[C@H]3O[C@H](CO)[C@@H](O)[C@H](O)[C@H]3N)O[C@@H]2CO)[C@H](N)[C@@H](O)[C@@H]1O [PAROMOMYCIN] | 2 µg/mL (≈ 3.25 µM) | 0.26 µg/mL | 9.78 µg/mL | 82100 nM | 5.83 µg/mL | 10.42 µg/mL | 10.39 µg/mL | 16 µg/mL (≈ 26 µM) | 48.7 nM | 4 µg/mL (≈ 6.5 µM) | 4 µg/mL (≈ 6.5 µM) | > 256 µg/mL | > 256 µg/mL | 8 µg/mL (≈ 13 µM) | 8 µg/mL (≈ 13 µM) | 0.57 µg/mL |
| NC[C@@H]1O[C@H](O[C@H]2[C@@H](O)[C@H](O[C@@H]3[C@@H](O)[C@H](N)C[C@H](N)[C@H]3O[C@H]3O[C@H](CO)[C@@H](O[C@@H]4O[C@H](CO)[C@H](O)[C@H](O)[C@H]4O)[C@H](O)[C@H]3N)O[C@@H]2CO)[C@H](N)[C@@H](O)[C@@H]1O | 128 µg/mL (≈ 165 µM) | 36.46 µg/mL | 104.57 µg/mL | 182000 nM | 209.22 µg/mL | 623.16 µg/mL | 286.76 µg/mL | > 128 µg/mL | 1950 nM | > 128 µg/mL | ≥ 128 µg/mL | ≥ 128 µg/mL | > 128 µg/mL | > 128 µg/mL | > 128 µg/mL | 78.05 µg/mL |
| NC[C@@H]1O[C@H](O[C@H]2[C@@H](O)[C@H](O[C@@H]3[C@@H](O)[C@H](N)C[C@H](N)[C@H]3O[C@H]3O[C@H](CO)[C@@H](O[C@@H]4O[C@H](CO)[C@@H](O)[C@H](O)[C@@H]4O)[C@H](O)[C@H]3N)O[C@@H]2CO)[C@H](N)[C@@H](O)[C@@H]1O | 64 µg/mL (≈ 82.3 µM) | 27.91 µg/mL | 47.64 µg/mL | 70200 nM | 85.7 µg/mL | 297.39 µg/mL | 90.35 µg/mL | > 128 µg/mL | 591 nM | ≥ 128 µg/mL | ≥ 128 µg/mL | ≥ 128 µg/mL | ≥ 128 µg/mL | > 128 µg/mL | > 128 µg/mL | 51.48 µg/mL |

Source: ChEMBL document CHEMBL3588782, “Synthesis, antiribosomal and antibacterial activity of 4-O-glycopyranosyl paromomycin aminoglycoside antibiotics” (Medchemcomm, 2014)
